Measurements reported in patent publication US9955691B2, “Macrocyclic picolinamides as fungicides” (DOW AGROSCIENCES LLC, priority 2014, dated 2018).

What was measured:
Phakopsora pachyrhizi = test: Fungicidal activity: Asian Soybean Rust (PHAKPA); type: in vivo; conditions: 25 ppm, 1DP (1 Day Protectant)
Description: Evaluation of Fungicidal Activity: Asian Soybean Rust (Phakopsora pachyrhizi; Bayer Code PHAKPA)
Technical grades of materials were dissolved in acetone, which were then mixed with nine volumes of water containing 0.011% Tween 20. The fungicide solutions were applied onto soybean seedlings using an automated booth sprayer to run-off. All sprayed plants were allowed to air dry prior to further handling.
Soybean plants (variety Williams 82) were grown in soil-less Metro mix, with one plant per pot. Two weeks old seedlings were used for testing. Plants were inoculated either 3 days prior to or 1 day after fungicide treatments. Plants were incubated for 24 h in a dark dew room at 22° C. and 100% relative humidity then transferred to a growth room at 23° C. for disease to develop. Disease severity was assessed on the sprayed leaves.

[1] = test system: Magnaporthe grisea; Anamorph: Pyricularia oryzae; type: in vivo; conditions: 100 ppm, 1 DP (1 Day Protectant), rice
Uncinula necator = test: Fungicidal activity: Grape Powdery Mildew (UNCINE); type: in vivo; conditions: 100 ppm, 1 DP (1 Day Protectant)
Description: Technical grades of materials were dissolved in acetone, which were then mixed with nine volumes of water containing 110 ppm Triton X-100. The fungicide solutions were applied onto wheat seedlings using an automated booth sprayer to run-off. All sprayed plants were allowed to air dry prior to further handling. All fungicides were evaluated using the aforementioned method for their activity vs. all target diseases, unless stated otherwise. Wheat leaf blotch and brown rust activity were also evaluated using track spray applications, in which case the fungicides were formulated as EC formulations, containing 0.1% Trycol 5941 in the spray solutions. Wheat plants (variety Yuma) were grown from seed in a greenhouse in 50% mineral soil/50% soil-less Metro mix until the first leaf was fully emerged, with 7-10 seedlings per pot. These plants were inoculated with an aqueous spore suspension of Septoria tritici either prior to or after fungicide treatments. After inoculation the plants were kept in 100% relative humidity (one day in a dark dew chamber followed by two to three days in a lighted dew chamber at 20° C.) to permit spores to germinate and infect the leaf. The plants were then transferred to a greenhouse set at 20° C. for disease to develop. When disease symptoms were fully expressed on the 1st leaves of untreated plants, infection levels were assessed on a scale of 0 to 100 percent disease severity. Percent disease control was calculated using the ratio of disease severity on treated plants relative to untreated plants. Evaluation of Fungicidal Activity: Grape Powdery Mildew (Uncinula necator; Bayer code […]) Grape seedlings (variety Carignane) were grown in soil-less Metro mix, with one plant per pot, and used in the test when approximately one month old. Plants were inoculated 24 hr after fungicide treatment by shaking spores from infected leaves over test plants. Plants were maintained in a greenhouse set at 20° C. until disease was fully developed. […]

Erysiphe cichoracearum = test: Fungicidal activity: Powdery Mildew of Cucumber (ERYSCI); type: in vivo; conditions: 100 ppm, 1 DP (1 Day Protectant)
Rhyncosporium secalis = test: Fungicidal activity: Barley Scald (RHYNSE); type: in vivo; conditions: 100 ppm, 1 DP (1 Day Protectant)
Description: Technical grades of materials were dissolved in acetone, which were then mixed with nine volumes of water containing 110 ppm Triton X-100. The fungicide solutions were applied onto wheat seedlings using an automated booth sprayer to run-off. All sprayed plants were allowed to air dry prior to further handling. All fungicides were evaluated using the aforementioned method for their activity vs. all target diseases, unless stated otherwise. Wheat leaf blotch and brown rust activity were also evaluated using track spray applications, in which case the fungicides were formulated as EC formulations, containing 0.1% Trycol 5941 in the spray solutions. Wheat plants (variety Yuma) were grown from seed in a greenhouse in 50% mineral soil/50% soil-less Metro mix until the first leaf was fully emerged, with 7-10 seedlings per pot. These plants were inoculated with an aqueous spore suspension of Septoria tritici either prior to or after fungicide treatments. After inoculation the plants were kept in 100% relative humidity (one day in a dark dew chamber followed by two to three days in a lighted dew chamber at 20° C.) to permit spores to germinate and infect the leaf. The plants were then transferred to a greenhouse set at 20° C. for disease to develop. When disease symptoms were fully expressed on the 1st leaves of untreated plants, infection levels were assessed on a scale of 0 to 100 percent disease severity. Percent disease control was calculated using the ratio of disease severity on treated plants relative to untreated plants. Evaluation of Fungicidal Activity: Barley Scald (Rhyncosporium secalis; Bayer Code […]) Barley seedlings (variety Harrington) were propagated in soil-less Metro mix, with each pot having 8 to 12 plants, and used in the test when first leaf was fully emerged. Test plants were inoculated by an aqueous spore suspension of Rhyncosporium secalis 24 hr after fungicide treatments. After inoculation the plants were kept in a dew room at 20° C. with 100% relative humidity for 48 hr. The plants were then transferred to a greenhouse set at 20° C. for disease to develop. Fungicide formulation, application and disease assessment on the sprayed leaves followed the procedures as described in the Example A.

Venturia inaequalis = test: Fungicidal activity: Apple Scab (VENTIN); type: in vivo; conditions: 100 ppm, 1 DP (1 Day Protectant)
Cercospora beticola = test: Fungicidal activity: Leaf Spot of Sugar Beets (CERCBE); type: in vivo; conditions: 100 ppm, 1 DP (1 Day Protectant), sugar beet
Description: Technical grades of materials were dissolved in acetone, which were then mixed with nine volumes of water containing 110 ppm Triton X-100. The fungicide solutions were applied onto wheat seedlings using an automated booth sprayer to run-off. All sprayed plants were allowed to air dry prior to further handling. All fungicides were evaluated using the aforementioned method for their activity vs. all target diseases, unless stated otherwise. Wheat leaf blotch and brown rust activity were also evaluated using track spray applications, in which case the fungicides were formulated as EC formulations, containing 0.1% Trycol 5941 in the spray solutions. Wheat plants (variety Yuma) were grown from seed in a greenhouse in 50% mineral soil/50% soil-less Metro mix until the first leaf was fully emerged, with 7-10 seedlings per pot. These plants were inoculated with an aqueous spore suspension of Septoria tritici either prior to or after fungicide treatments. After inoculation the plants were kept in 100% relative humidity (one day in a dark dew chamber followed by two to three days in a lighted dew chamber at 20° C.) to permit spores to germinate and infect the leaf. The plants were then transferred to a greenhouse set at 20° C. for disease to develop. When disease symptoms were fully expressed on the 1st leaves of untreated plants, infection levels were assessed on a scale of 0 to 100 percent disease severity. Percent disease control was calculated using the ratio of disease severity on treated plants relative to untreated plants. Evaluation of Fungicidal Activity: Leaf Spot of Sugar Beets (Cercospora beticola; Bayer Code CERCBE) Sugar beet plants (variety HH88) were grown in soil-less Metro mix and trimmed regularly to maintain a uniform plant size prior to test. Plants were inoculated with a spore suspension 24 hr after fungicide treatments. Inoculated plants were kept in a dew chamber at 22° C. for 48 hr then incubated in a greenhouse set at 24° C. under a clear plastic hood with bottom ventilation until disease symptoms were fully expressed. Fungicide formulation, application and disease assessment on the sprayed leaves followed the procedures as described in the Example A.

[2] = test system: Blumeria graminis f. sp. tritici; test: Fungicidal activity: Wheat Powdery Mildew (ERYSGT); type: in vivo; conditions: 100 ppm, 1 DP (1 Day Protectant)

Compound | melting point | PHAKPA disease control rating (Phakopsora pachyrhizi) | PYRIOR disease control rating [1] | UNCINE disease control rating (Uncinula necator) | ERYSCI disease control rating (Erysiphe cichoracearum) | RHYNSE disease control rating (Rhyncosporium secalis) | VENTIN disease control rating (Venturia inaequalis) | CERCBE disease control rating (Cercospora beticola) | ERYSGT disease control rating [2]
COc1ccnc(C(=O)N[C@H]2COC[C@H](Cc3ccccc3)[C@@H](Cc3ccccc3)[C@H](C)OC2=O)c1OCOC(C)=O [Cmpd. 3, ((2-(((3S,7R,8R,9S)-7,8-dibenzyl-9-methyl-2-oxo-1,5-dioxonan-3-yl)carbamoyl)-4-methoxypyridin-3-yl)oxy)methyl acetate] | 56 to 60 °C | A (>70) | A (>70) | – | – | – | – | – | –
CCCC[C@@H]1[C@@H](Cc2ccccc2)COC[C@H](NC(=O)c2nccc(OC)c2OCOC(=O)C(C)C)C(=O)O[C@H]1C [compound 1] | – | – | A (>70) | A (>70) | A (>70) | A (>70) | B (≤70) | A (>70) | –
COc1ccnc(C(=O)N[C@H]2COC[C@H](c3ccccc3)[C@@H](c3ccccc3)[C@H](C)OC2=O)c1OCOC(C)=O [compound 7] | 59 to 64 °C | – | A (>70) | A (>70) | A (>70) | – | – | A (>70) | A (>70)
CCCC[C@@H]1[C@@H](Cc2ccc(C(F)(F)F)cc2)COC[C@H](NC(=O)c2nccc(OC)c2OCOC(C)=O)C(=O)O[C@H]1C [compound 16] | – | – | – | A (>70) | A (>70) | A (>70) | A (>70) | A (>70) | –
COc1ccnc(C(=O)N[C@H]2COC[C@H](Cc3ccccc3)[C@@H](Cc3ccccc3)[C@H](C)OC2=O)c1OC(C)=O [compound 27] | 67 to 71 °C | – | A (>70) | – | B (≤70) | A (>70) | – | A (>70) | –
COc1ccnc(C(=O)N[C@H]2COC[C@H](CC3CC3)[C@@H](c3ccccc3)[C@H](C)OC2=O)c1OC(C)=O [compound 100] | – | – | A (>70) | – | A (>70) | B (≤70) | – | A (>70) | –
